How the values were obtained:
[1] = target: T1, aldose reductase enzyme obtained from human placenta (Homo sapiens, UniProt P15121); experiment: Inhibition of partially purified aldose reductase from human placenta; format: biochemical; settings: for IC50: HUMAN, human placenta enzyme, read-out: IC50 (concentration of drug that inhibits 50% of the enzyme activity)
T1 construct: partially purified aldose reductase enzyme obtained from rat lens or human placenta; from tissue; host or cells: human placenta
Experimental: The spiro-hydantoin compounds of Preparations C and D were tested for their ability to reduce or inhibit aldose reductase enzyme activity via the procedures of P. F. Kador et. al. as described in Biophysical Chemistry, 8 (1978) 81-85 and P. F. Kador et. al. as described in Documenta Ophthamologicia, 18 (1979) 117. In every case the […] employed was partially purified aldose reductase enzyme obtained from rat lens or human placenta.

[2] = target: T2, aldose reductase enzyme obtained from rat lens (Rattus norvegicus, UniProt P07943); experiment: Inhibition of partially purified aldose reductase from rat lens; format: biochemical; settings: read-out: IC50 (concentration of drug that inhibits 50% of the enzyme activity)
T2 construct: partially purified aldose reductase enzyme obtained from rat lens; from tissue; host or cells: rat lens
Source text: In every case the substrate employed was partially purified aldose reductase enzyme obtained from rat lens or human placenta.

[3] = tested on: membrane bound cytochrome containing oxidoreductase enzymes; experiment: In vivo conversion of the methylthio group to methylsulfinyl; settings: enzymes common to liver, kidney and lung

IC50 [1] [nM]	in vitro inhibition of human placental aldose reductase ([1]; in vitro)	IC50 [2] [nM]	Molecule	conversion of methylthio group to methylsulfinyl derivative [3]
12000	inhibit human placental aldose reductase	–	C[S+]([O-])c1ccc2c(c1)C1(CCO2)NC(=O)NC1=O (centres unmarked) [D, spiro-(6-methylsulfinylchroman-4,4'-imidazolidine)-2',5'-dione]	–
660	–	270	dl-spiro-(6-methylthio-chroman-4,4'-imidazolidine)-2',5'-dione	converted to the methylsulfinyl derivative
